Marks after values point to notes of the source that are not given here.
Assays:
[1] = cited from earlier work
[2] = Pharmacokinetics from dried saliva collected with Mitra VAMS (vsMPA, vsMPAG); format: in vivo, human
Experimental: (§1) The AUC0–4, Tmax, and Cmax parameters were calculated using the R (version 4.5.1) package software (R Core Team, 2025), supported by RStudio (version 2025.05.1+513) from Posit PBC software (Boston, MA, USA). […] The vMPA and vMPAG capillary blood levels were corrected using formulas validated in our department (partially published by Kocur et al.) and expressed as estimated capillary plasma concentrations. […] Individual PK profiles for each patient included in the study are provided in the Supplementary File (Figures S4 and S5).
Samples were sonicated (36 °C, 30 min), vortexed (15 min), and frozen (−20 °C, 15 min). After centrifugation (10 min, 25,155× g), 350 µL of supernatant was transferred to a total recovery borosilicate vial (Finneran, Vineland, NJ, USA) and evaporated to dryness under a stream of nitrogen (40 °C) using Ultravap® Levante (Porvair, Hampshire, Great Britain). The residue was reconstituted in 150 µL of mobile phase A, filtered in a Verex™ vial, and 5 µL was injected into the LC–MS/MS system. Analyses were performed at the Department of Drug Chemistry, Pharmaceutical and Biomedical Analysis, Medical University of Warsaw, Poland.
(§2) Additionally, the unstimulated saliva samples were simultaneously collected using the Salivette® device (Sarstedt, Nümbrecht, Germany) and Mitra™ 20 µL microsampling tips (Neoteryx/Trajan, Torrance, CA, USA (all saliva samples simultaneously to plasma and capillary blood sampling: 0, 0.5, 1, 2, and 4 h after drug administration). Patients had not eaten for at least 30 min before saliva collection, and their mouths were rinsed with water. The study was conducted in accordance with the Declaration of Helsinki and the International Council for Harmonization Guideline for Good Clinical Practice. The protocol was approved by the Bioethics Committee of the Children’s Memorial Health Institute, Warsaw, Poland (approval No. 15/KBE/2023, with subsequent amendments). Written informed consent was obtained from all participants and their legal guardians.

[3] = Stability of analytes in dried saliva Mitra VAMS tips; format: physicochemical; conditions: room temperature (with daily light exposure), n=6
Experimental: Stability testing, a crucial component of method development and validation, was conducted through various experiments, including storage stability in the autosampler and stability of analytes in VAMS tips under different stress conditions. Analyte stability is deemed acceptable if the differences stay within the nominal range of ±15%. Additionally, the reproducibility of the injection was assessed during autosampler stability testing.

[4] = Pharmacokinetics from plasma unbound levels in plasma ultrafiltrate (fMPA, fMPAG); format: in vivo, human; conditions: free level in plasma ultrafiltrate
Experimental: as §1
Next, the sample was centrifuged at 3000× g for 5 min at ambient conditions, and the supernatant was transferred into a chromatographic vial. Sample processing was performed at the Department of Drug Chemistry, Pharmaceutical and Biomedical Analysis, Medical University of Warsaw, Poland.
(§3) From each patient (if they consented to all sampling types), four samples were collected simultaneously at all defined time points of the dynamic PK profile (0, 0.5, 1, 2, and 4 h after drug administration). Whole blood was collected using standard venipuncture by a phlebotomist into a K3-EDTA test tube (Sarstedt, Nümbrecht, Germany). Plasma for analytical determination was obtained by centrifuging a portion of the whole blood and stored at −40 °C until assay. At the same time, 10 µL capillary blood samples were collected from a finger prick using the Mitra™ device (VAMS samples were stored in light-protected aluminum zip bags with desiccant at room temperature).

[5] = Pharmacokinetics from liquid (wet) saliva collected with Salivette (sMPA, sMPAG); format: in vivo, human
Experimental: as §1
The concentrations of sMPA and sMPAG in saliva were determined using a previously described LC-MS/MS method. Briefly, 100 µL of saliva was used for analysis. […] Samples were vortexed and evaporated to dryness. The dry residues were reconstituted in 100 μL of a mobile phase consisting of a 1:4 (v/v) mixture of methanol and water, both of which contained 0.1% formic acid. After double centrifugation, the samples were analyzed using a Shimadzu Ultra-Performance Liquid Chromatography (UPLC) system (Shimadzu Co., Kyoto, Japan) coupled with a triple quadrupole mass spectrometer (LCMS-8030; Simadzu Co., Kyoto, Japan). The method was linear over the concentration range of 2–500 μg/L for both sMPA and sMPAG. This part of the work was carried out with the support of the Centre of Innovative Pharmaceutical Technology, Poznan University of Medical Sciences (Poznan, Poland).
as §2

[6] = Pharmacokinetics from capillary blood collected with Mitra VAMS (vMPA, vMPAG); format: in vivo, human
Experimental: as §1
Subsequently, the tip (after at least 1 h of drying) was placed in an 1.5 mL Eppendorf-type test tube (Eppendorf AG, Hamburg, Germany) containing 150 μL of pure deionized water. Next, the test tube was shaken at room temperature for 1 h using the automatic rotary vortex. Subsequently, 10 μL of IS solution and 150 μL of the precipitation mixture were added. The sample was then processed as described in Section 4.3.4. Sample processing was carried out at the Department of Drug Chemistry, Pharmaceutical and Biomedical Analysis, Medical University of Warsaw, Poland [21].
as §3

[7] = dried saliva (Mitra VAMS), pediatric renal transplant recipients (n = 20) on MMF, mean (range)
[8] = 0 h (pre-dose), n = 20, mean ± SD
[9] = 0.5 h post-dose, n = 20, mean ± SD
[10] = 1 h post-dose, n = 20, mean ± SD
[11] = 2 h post-dose, n = 20, mean ± SD
[12] = 4 h post-dose, n = 20, mean ± SD
[13] = normalized to MMF dose, n = 20, mean (range)
[14] = pediatric renal transplant recipients (n = 20) on MMF, mean (range)
[15] = wet saliva, pediatric renal transplant recipients (n = 20) on MMF, mean (range)

Cmax ([2]; dried saliva (Mitra VAMS 20 µL), pediatric renal transplant recipients (n = 20) on MMF, 0–4 h post-dose, mean (range)): 70.30 (19.04–146.54) µg/L
C0 concentration ([2]; dried saliva (Mitra VAMS), 0 h (pre-dose), n = 20, mean ± SD): 17.834 ± 12.122 µg/L
C0.5 concentration ([2]; dried saliva (Mitra VAMS), 0.5 h post-dose, n = 20, mean ± SD): 37.704 ± 24.598 µg/L
C1 concentration ([2]; dried saliva (Mitra VAMS), 1 h post-dose, n = 20, mean ± SD): 67.422 ± 44.462 µg/L
C2 concentration ([2]; dried saliva (Mitra VAMS), 2 h post-dose, n = 20, mean ± SD): 39.258 ± 25.317 µg/L
C4 concentration ([2]; dried saliva (Mitra VAMS), 4 h post-dose, n = 20, mean ± SD): 19.762 ± 13.638 µg/L
AUC(0–4) Normalized to Drug Dose ([2]; dried saliva (Mitra VAMS), normalized to MMF dose, n = 20, mean (range)): 335.45 (115.15–902.00) ^c µg × h/mL × g
AUC(0–4) [2, 7]: 145 µg·h/L
Tmax [2, 7]: 1.03 (0.50–2.00) h
stability, mean recovery ([3]; HQC, 1 week): 96.66%
stability, mean recovery ([3]; HQC, 2 weeks): 94.51%
stability, mean recovery ([3]; HQC, 24 hours): 100.16%
stability, mean recovery ([3]; HQC, 3 days): 98.94%
stability, mean recovery ([3]; LQC, 1 week): 99.67%
stability, mean recovery ([3]; LQC, 2 weeks): 97.25%
stability, mean recovery ([3]; LQC, 24 hours): 103.15%
stability, mean recovery ([3]; LQC, 3 days): 100.46%
C0 concentration [4, 8]: 3.893 ± 2.073 mg/L
C0.5 concentration [4, 9]: 6.264 ± 4.238 mg/L
C1 concentration [4, 10]: 8.029 ± 4.393 mg/L
C2 concentration [4, 11]: 6.889 ± 3.791 mg/L
C4 concentration [4, 12]: 4.701 ± 2.218 mg/L
AUC(0–4) Normalized to Drug Dose [4, 13]: 66.47 (19.97–195.68) ^d mg × h/mL × g
Cmax ([4]; pediatric renal transplant recipients (n = 20) on MMF (CellCept), steady state, 0–4 h post-dose, mean (range)): 8.98 (3.85–19.81) mg/L
AUC(0–4) [4, 14]: 25.2 mg·h/L
Tmax [4, 14]: 1.55 (0.50–2.00) h
Cmax ([5]; wet saliva (unstimulated, Salivette), pediatric renal transplant recipients (n = 20) on MMF, 0–4 h post-dose, mean (range)): 73.74 (22.00–146.00) µg/L
C0 concentration ([5]; wet saliva, 0 h (pre-dose), n = 20, mean ± SD): 19.135 ± 12.712 µg/L
C0.5 concentration ([5]; wet saliva, 0.5 h post-dose, n = 20, mean ± SD): 39.659 ± 26.611 µg/L
C1 concentration ([5]; wet saliva, 1 h post-dose, n = 20, mean ± SD): 70.173 ± 44.943 µg/L
C2 concentration ([5]; wet saliva, 2 h post-dose, n = 20, mean ± SD): 39.371 ± 25.210 µg/L
C4 concentration ([5]; wet saliva, 4 h post-dose, n = 20, mean ± SD): 22.417 ± 15.097 µg/L
AUC(0–4) Normalized to Drug Dose ([5]; wet saliva, normalized to MMF dose, n = 20, mean (range)): 352.10 (119.88–857.42) ^c µg × h/mL × g
AUC(0–4) [5, 15]: 158 µg·h/L
Tmax [5, 15]: 1.08 (0.50–2.00) h
C0 concentration [6, 8]: 22.481 ± 10.350 mg/L
C0.5 concentration [6, 9]: 34.340 ± 14.354 mg/L
C1 concentration [6, 10]: 44.003 ± 20.520 mg/L
C2 concentration [6, 11]: 34.039 ± 12.356 mg/L
C4 concentration [6, 12]: 25.381 ± 11.908 mg/L
AUC(0–4) ([6]; corrected to estimated capillary plasma concentration, n = 20, mean (range)): 133 mg·h/L
Cmax ([6]; corrected to estimated capillary plasma concentration, pediatric renal transplant recipients (n = 20) on MMF, mean (range)): 47.73 (19.80–110.76) mg/L
AUC(0–4) Normalized to Drug Dose [6, 13]: 361.35 (100.49–1064.33) ^d mg × h/mL × g
Tmax [6, 14]: 1.38 (0.50–2.00) h
Compound: COc1c(C)c2c(c(O[C@@H]3O[C@H](C(=O)O)[C@@H](O)[C@H](O)[C@H]3O)c1C/C=C(\C)CCC(=O)O)C(=O)OC2 [MPAG, mycophenolic acid glucuronide]
increase of concentration in severe renal impairment ([1]; patients with severe renal impairment, up): 3–6 fold
time of peak plasma concentration after administration ([1]; plasma): 1 to 4 h
binding to albumin ([1]; stable transplant recipients): approximately 82%
